Source: patent US20220125745A1, “PHARMACEUTICAL COMPOSITION FOR CO-ADMINISTRATION OF ACIDOSIS-INDUCING DRUG” (HAIM BIO CO., LTD., priority 2018, published 2022)
Where two headings read alike, the source gives them in different places.

How the values were obtained:
[1] = tested on: A549 cells (cancer cells); experiment: Lactate assay (luminescence) in A549 cells, candidate substance alone or combined with a substance that causes lactic acidosis; type: cell-based; conditions: for activity at 50 µM: Homo sapiens
Description: (§1) To identify the effects of administration of the candidate substances for lactic acidosis treatment as described in Example 1 in combination with the above-mentioned substances that cause lactic acidosis, A549 cells (cancer cells) or L132 cells (normal cells) were respectively seeded in 96- or 24-well plates at a concentration of 1×10^4 or 3×10^5 cells/well, and incubation was performed overnight. Administration of the candidate substance for acidosis treatment in combination with the substance that causes lactic acidosis was performed and incubation was further performed for 24 hours. For the candidate substances for acidosis treatment, each substance was administered at a uniform concentration of 50 μM; and for the substances that cause lactic acidosis, metformin was administered at 1 to 100 μM, isoniazid was administered at 1 to 500 μM, berberine was administered at 10 μM, linezolid was administered at 200 μM, and phenformin was administered at 100 μM. All substances were dissolved in dimethyl sulfoxide (DMSO, Sigma-Aldrich Corporation, St. Louis, Mo., USA), and the substances to be administered in combination were administered simultaneously. Subsequently, 50 μl of the cell culture solution obtained by being diluted with Dulbecco's Phosphate-Buffered Saline (DPBS; Wellgene, Korea), and 50 μl of the lactate assay reaction buffer (Promega, Madison, Wis., USA) were mixed and the mixture was added in a 96-well plate. Reaction was allowed to proceed at room temperature for 1 hour. Then, luminescence was measured with a spectrophotometer (Synergy HTX Multi-Reader; BioTek, Winooski, Vt., USA). At the same time, the number of cells in each sample was measured with a cell viability analysis kit (Cell Counting Kit-8; Dojindo Molecular Technologies, Inc., Kumamoto, Japan), and calculation was performed so that the lactic acid measurement value in each sample could be compared with that in the negative control for the same number of cells.

[2] = tested on: L132 cells (normal cells); experiment: Lactate assay (luminescence) in L132 cells, candidate substance alone or combined with a substance that causes lactic acidosis; type: cell-based; conditions: for activity at 50 µM: Homo sapiens
Description: as §1

[3] = A549, candidate 50 μM + berberine 10 μM, relative to berberine alone (PC)
[4] = A549, candidate 50 μM + linezolid 200 μM, relative to linezolid alone (PC)
[5] = A549, candidate 50 μM + phenformin 100 μM, relative to phenformin alone (PC)
[6] = A549, candidate 50 μM alone, no berberine, 24 h, vs negative control, mean ± SEM, read-out: Luminescence intensity (%), Berberine (10 μM) −
[7] = A549, candidate 50 μM alone, no linezolid, 24 h, vs negative control, mean ± SEM, read-out: Luminescence intensity (%), Linezolid (200 μM) −
[8] = A549, candidate 50 μM alone, no phenformin, 24 h, vs negative control, mean ± SEM, read-out: Luminescence intensity (%), Phenformin (100 μM) −
[9] = L132, candidate 50 μM alone, no berberine, 24 h, vs negative control, mean ± SEM, read-out: Luminescence intensity (%), Berberine (10 μM) −
[10] = L132, candidate 50 μM alone, no linezolid, 24 h, vs negative control, mean ± SEM, read-out: Luminescence intensity (%), Linezolid (200 μM) −
[11] = L132, candidate 50 μM alone, no phenformin, 24 h, vs negative control, mean ± SEM, read-out: Luminescence intensity (%), Phenformin (100 μM) −
[12] = L132, candidate 50 μM + berberine 10 μM, relative to berberine alone (PC)
[13] = L132, candidate 50 μM + linezolid 200 μM, relative to linezolid alone (PC)
[14] = L132, candidate 50 μM + phenformin 100 μM, relative to phenformin alone (PC)

| SMILES | Lactic acid value vs. PC (%) [1, 3] [%] | Lactic acid-decreasing rate vs. PC (%) [1, 3] [%] | Lactic acid value vs. PC (%) [1, 4] [%] | Lactic acid-decreasing rate vs. PC (%) [1, 4] [%] | Lactic acid value vs. PC (%) [1, 5] [%] | Lactic acid-decreasing rate vs. PC (%) [1, 5] [%] | activity at 50 µM [1, 6] [%] | activity at 50 µM [1, 7] [%] | activity at 50 µM [1, 8] [%] | activity at 50 µM [2, 9] [%] | activity at 50 µM [2, 10] [%] | activity at 50 µM [2, 11] [%] | Lactic acid value vs. PC (%) [2, 12] [%] | Lactic acid-decreasing rate vs. PC (%) [2, 12] [%] | Lactic acid value vs. PC (%) [2, 13] [%] | Lactic acid-decreasing rate vs. PC (%) [2, 13] [%] | Lactic acid value vs. PC (%) [2, 14] [%] | Lactic acid-decreasing rate vs. PC (%) [2, 14] [%] | also measured |
| --- | --- | --- | --- | --- | --- | --- | --- | --- | --- | --- | --- | --- | --- | --- | --- | --- | --- | --- | --- |
| C#CCN(C)Cc1ccccc1 [Pargyline] | 101.89 | −1.89 | 98.24 | 1.76 | 95.59 | 4.41 | 95.68 ± 0.7 | 95.68 ± 0.7 | 95.68 ± 0.7 | 96.1 ± 1.32 | 96.1 ± 1.32 | 96.1 ± 1.32 | 101.56 | −1.56 | 88.70 | 11.30 | 100.88 | −0.88 | – |
| Cc1cc2c(C(C)C)c(O)c(O)c(C=O)c2c(O)c1-c1c(C)cc2c(C(C)C)c(O)c(O)c(C=O)c2c1O [Gossypol] | 62.63 | 37.37 | 67.86 | 32.14 | 67.24 | 32.76 | – | – | – | – | – | – | 50.96 | 49.04 | 67.84 | 32.16 | 51.58 | 48.42 | activity at 50 µM ([1]; A549, 24 h, read-out: Luminescence intensity (%), Berberine (10 μM) −): 87.6 ± 1.87%; activity at 50 µM ([1]; A549, 24 h, read-out: Luminescence intensity (%), Linezolid (200 μM) −): 87.6 ± 1.87%; activity at 50 µM ([1]; A549, 24 h, read-out: Luminescence intensity (%), Phenformin (100 μM) −): 87.6 ± 1.87%; activity at 50 µM ([2]; L132, 24 h, read-out: Luminescence intensity (%), Berberine (10 μM) −): 84.3 ± 2.9%; activity at 50 µM ([2]; L132, 24 h, read-out: Luminescence intensity (%), Linezolid (200 μM) −): 84.3 ± 2.9%; activity at 50 µM ([2]; L132, 24 h, read-out: Luminescence intensity (%), Phenformin (100 μM) −): 84.3 ± 2.9% |
| N#CN [Cyanamide] | 96.56 | 3.44 | 87.76 | 12.24 | 98.83 | 1.17 | 97.02 ± 0.81 | 97.02 ± 0.81 | 97.02 ± 0.81 | 92.1 ± 1.56 | 92.1 ± 1.56 | 92.1 ± 1.56 | 99.86 | 0.14 | 88.99 | 11.01 | 98.19 | 1.81 | – |
| CCSC(=O)N1CCCCCC1 [Molinate] | 105.78 | −5.78 | 105.88 | −5.88 | 91.13 | 8.87 | 110 ± 1.91 | 110 ± 1.91 | 110 ± 1.91 | 155 ± 3.38 | 155 ± 3.3 | 155 ± 3.38 | 105.04 | −5.04 | 125.68 | −25.68 | 99.16 | 0.84 | – |
